Test results: PMC6151550, “Inhibitory Effect of Selaginellins from Selaginella tamariscina (Beauv.) Spring against Cytochrome P450 and Uridine 5′-Diphosphoglucuronosyltransferase Isoforms on Human Liver Microsomes” (Molecules : A Journal of Synthetic Chemistry and Natural …, 2017)
pIC50: −log10 of the molar value.

What was measured:
Format in all cases: in vitro ADME
CYP2C8 = target: T1, CYP2C8 (Homo sapiens, UniProt P10632); experiment: CYP2C8 inhibition (amodiaquine N-deethylase) in human liver microsomes, substrate cocktail LC-MS/MS
T1 construct: the incubation mixtures containing pooled HLMs (0.25 mg/mL, H2630, Xenotech); tissue Xenotech H2630; host or cells: pooled human liver microsomes
T1 sequence (P10632 1-490): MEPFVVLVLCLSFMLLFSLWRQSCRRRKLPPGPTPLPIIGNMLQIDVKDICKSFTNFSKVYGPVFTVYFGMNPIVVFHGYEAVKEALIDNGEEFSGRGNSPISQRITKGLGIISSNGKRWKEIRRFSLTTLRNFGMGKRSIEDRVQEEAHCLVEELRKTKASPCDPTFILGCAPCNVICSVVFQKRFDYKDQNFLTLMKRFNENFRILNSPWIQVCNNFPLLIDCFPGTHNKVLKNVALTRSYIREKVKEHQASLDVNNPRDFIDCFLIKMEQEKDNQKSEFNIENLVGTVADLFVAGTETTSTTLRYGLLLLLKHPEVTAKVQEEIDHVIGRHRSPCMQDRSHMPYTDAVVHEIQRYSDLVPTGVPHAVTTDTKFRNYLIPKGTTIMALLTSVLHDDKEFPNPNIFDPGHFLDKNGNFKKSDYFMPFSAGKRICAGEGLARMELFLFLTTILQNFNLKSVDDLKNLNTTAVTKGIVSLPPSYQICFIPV
Protocol: The inhibitory effects of two selaginellins on the metabolism of ten P450 probe substrates were evaluated using previously reported method with minor modification. Phenacetin O-deethylase, coumarin 7-hydroxylase, bupropion 4-hydroxylase, amodiaquine N-deethylase, tolbutamide 4-hydroxylase, omeprazole 5-hydroxylase, dextromethorphan O-demethylase, chlorzoxazone 6-hydroxylase and midazolam 1′-hydroxylase activities were determined as probe activities for CYP1A2, CYP2A6, CYP2B6, CYP2C8, CYP2C9, CYP2C19, CYP2D6, CYP2E1 and […], respectively, using substrate cocktail incubation and tandem mass spectrometry (Table 2). Selaginellins were dissolved in methanol. The final concentrations of organic solvent (methanol) for the cocktail incubation conditions in all experiments were 1.0% (v/v). In brief, the incubation mixtures containing pooled HLMs (0.25 mg/mL, H2630, Xenotech), P450 probe substrate cocktail, and inhibitor (0, 0.5, 2, 5, 20 and 50 μM) were preincubated at 37 °C for 5 min. The reaction was initiated by adding of the NADPH generating system (3.3 mM G6P, 1.3 mM β-NADP+, 3.3 mM MgCl2, and 1 unit/mL G6PDH) followed by incubation for 15 min at 37 °C. Next, each incubation was stopped by addition of 50 μL ice-cold acetonitrile containing terfenadine (IS). After mixing and centrifugation, aliquots were analyzed by liquid chromatography-tandem mass spectrometry (LC-MS/MS) as previous described. The CYP2J2 inhibitory effects of two selaginellins were also evaluated in pooled HLMs using previously reported method. In brief, the incubation reaction mixtures contained 0.25 mg/mL HLMs, astemizole (1 μM) and inhibitor (0.5–50 μM) in […] phosphate buffer (pH 7.4). The reaction was initiated by the addition of NADPH-generating system and further incubated for 15 min. After reaction termination with cold acetonitrile containing 5 ng/mL terfenadine and centrifugation, aliquots were injected into a liquid chromatography-tandem mass spectrometry system (LC-MS/MS) as described previously (Table 2). All microsomal incubations were performed in triplicate. […]

CYP2J2 = target: T2, CYP2J2 (Homo sapiens, UniProt P51589); experiment: CYP2J2 inhibition (astemizole O-demethylation) in pooled human liver microsomes, LC-MS/MS; settings: IC50 P450 isoform 2J2, pooled HLMs 0.25 mg/mL, astemizole 1.0 μM
T2 construct: from tissue; host or cells: pooled human liver microsomes
T2 sequence (P51589 1-502): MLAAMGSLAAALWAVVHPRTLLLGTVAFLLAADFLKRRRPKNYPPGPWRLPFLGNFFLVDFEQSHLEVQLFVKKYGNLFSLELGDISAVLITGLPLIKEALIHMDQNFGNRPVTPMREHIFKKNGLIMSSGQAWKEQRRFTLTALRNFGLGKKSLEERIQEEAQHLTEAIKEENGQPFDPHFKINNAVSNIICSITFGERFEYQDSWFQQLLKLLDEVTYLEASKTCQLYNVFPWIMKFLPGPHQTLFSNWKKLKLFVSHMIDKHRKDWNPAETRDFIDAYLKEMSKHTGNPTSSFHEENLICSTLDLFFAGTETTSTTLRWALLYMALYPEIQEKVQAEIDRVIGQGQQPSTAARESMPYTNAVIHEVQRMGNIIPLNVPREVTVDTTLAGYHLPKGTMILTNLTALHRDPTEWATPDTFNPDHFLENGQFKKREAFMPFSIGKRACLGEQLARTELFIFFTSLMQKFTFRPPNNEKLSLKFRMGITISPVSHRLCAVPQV
Protocol: (§1) The inhibitory effects of two selaginellins on the metabolism of ten P450 probe substrates were evaluated using previously reported method with minor modification. Phenacetin O-deethylase, coumarin 7-hydroxylase, bupropion 4-hydroxylase, amodiaquine N-deethylase, tolbutamide 4-hydroxylase, omeprazole 5-hydroxylase, dextromethorphan O-demethylase, chlorzoxazone 6-hydroxylase and midazolam 1′-hydroxylase activities were determined as probe activities for CYP1A2, CYP2A6, CYP2B6, CYP2C8, CYP2C9, CYP2C19, CYP2D6, CYP2E1 and […], respectively, using substrate cocktail incubation and tandem mass spectrometry (Table 2). Selaginellins were dissolved in methanol. The final concentrations of organic solvent (methanol) for the cocktail incubation conditions in all experiments were 1.0% (v/v). In brief, the incubation mixtures containing pooled HLMs (0.25 mg/mL, H2630, Xenotech), P450 probe substrate cocktail, and inhibitor (0, 0.5, 2, 5, 20 and 50 μM) were preincubated at 37 °C for 5 min. […] After mixing and centrifugation, aliquots were analyzed by liquid chromatography-tandem mass spectrometry (LC-MS/MS) as previous described. The CYP2J2 inhibitory effects of two selaginellins were also evaluated in pooled HLMs using previously reported method. […]

CYP2A6 = target: T3, CYP2A6 (Homo sapiens, UniProt P11509); experiment: CYP2A6 inhibition (coumarin 7-hydroxylase) in human liver microsomes, substrate cocktail LC-MS/MS
T3 construct: the incubation mixtures containing pooled HLMs (0.25 mg/mL, H2630, Xenotech); tissue Xenotech H2630; host or cells: pooled human liver microsomes
T3 sequence (P11509 1-494): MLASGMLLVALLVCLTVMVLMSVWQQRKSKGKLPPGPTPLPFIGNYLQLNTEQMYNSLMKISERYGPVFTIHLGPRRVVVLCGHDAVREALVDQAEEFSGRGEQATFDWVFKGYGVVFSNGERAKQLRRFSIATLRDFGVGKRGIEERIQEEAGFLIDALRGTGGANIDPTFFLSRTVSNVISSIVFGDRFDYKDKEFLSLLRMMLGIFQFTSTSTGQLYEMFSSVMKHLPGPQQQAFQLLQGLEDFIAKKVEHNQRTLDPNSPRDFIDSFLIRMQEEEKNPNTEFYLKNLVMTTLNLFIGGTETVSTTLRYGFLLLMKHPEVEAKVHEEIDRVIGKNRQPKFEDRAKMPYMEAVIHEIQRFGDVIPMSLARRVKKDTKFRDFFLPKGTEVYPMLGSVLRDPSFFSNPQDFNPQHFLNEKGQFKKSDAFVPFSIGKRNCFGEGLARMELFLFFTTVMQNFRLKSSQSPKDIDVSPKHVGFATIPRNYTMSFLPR
Protocol: as §1

SMILES | pIC50 (CYP2C8) | pIC50 (CYP2J2) | pIC50 (CYP2A6) | inhibitory potential for CYP2C8-mediated amodiaquine O-demethylation (class) (CYP2C8; human liver microsomes, class by Krippendorff's criteria)
COc1ccc(C(=C2C=CC(=O)C=C2)c2c(-c3ccc(O)cc3)ccc(CO)c2C#Cc2ccc(O)cc2)cc1 [Selaginellin M] | 6.05 | 5.57 | < 4.30 | 
O=C1C=CC(=C(c2ccc(O)cc2)c2c(-c3ccc(O)cc3)ccc(CO)c2C#Cc2ccc(O)cc2)C=C1 [Selaginellin] | 6.30 | 6.10 | < 4.30 | high (high (IC50 < 1 μM))
